From ChEMBL document CHEMBL1127757, “A non-steroidal diene acid inhibitor of human type 2 stereoid 5-reductase” (Bioorg Med Chem Lett, 1994) come the findings set out here.

The target of assay [1] is T1, 3-oxo-5-alpha-steroid 4-dehydrogenase 1 (Homo sapiens, UniProt P18405).
T1 sequence (P18405 whole entry): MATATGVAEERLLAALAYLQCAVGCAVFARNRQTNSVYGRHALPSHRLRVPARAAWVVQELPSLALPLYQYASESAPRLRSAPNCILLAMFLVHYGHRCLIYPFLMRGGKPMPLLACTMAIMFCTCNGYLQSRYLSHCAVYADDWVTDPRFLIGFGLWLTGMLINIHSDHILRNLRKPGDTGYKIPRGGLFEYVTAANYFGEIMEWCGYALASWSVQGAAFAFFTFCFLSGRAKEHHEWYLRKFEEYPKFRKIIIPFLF
The assay can be described thus: Apparent inhibition constant towards human Steroid 5-alpha-reductase type I. As to conditions: read-out: Ki app.

Assay [2] deals with T2, 3-oxo-5-alpha-steroid 4-dehydrogenase 2 (Homo sapiens, UniProt P31213).
T2 sequence (P31213 whole entry): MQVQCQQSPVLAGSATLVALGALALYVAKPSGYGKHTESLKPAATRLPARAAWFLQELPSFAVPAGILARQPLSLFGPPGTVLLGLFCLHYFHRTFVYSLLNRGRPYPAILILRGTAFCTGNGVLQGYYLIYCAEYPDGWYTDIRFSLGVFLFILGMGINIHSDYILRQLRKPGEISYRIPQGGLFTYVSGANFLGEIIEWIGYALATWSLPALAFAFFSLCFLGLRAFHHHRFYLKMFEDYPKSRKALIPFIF
The assay can be described thus: Apparent inhibition constant towards human Steroid 5-alpha-reductase type 2. As to conditions: read-out: Ki app.

For assay [3], the target named is T1, 3-oxo-5-alpha-steroid 4-dehydrogenase 1. Description: Apparent inhibition constant towards human Steroid 5-alpha-reductase type I; […].
For assay [4], the target named is T3, 3-oxo-5-alpha-steroid 4-dehydrogenase 2 (Homo sapiens) (UniProt P31213).
T3 sequence (whole entry): T2 sequence (P31213 whole entry)
The assay can be described thus: Percent inhibition towards human Steroid 5-alpha-reductase type 2 at 2.5 uM concentration.

Each structure is given as a SMILES string.

For the compound `CC(C)(C)NC(=O)[C@H]1CC[C@H]2[C@@H]3CC[C@H]4NC(=O)C=C[C@]4(C)[C@H]3CC[C@]12C` [FINASTERIDE], the Ki is 100 nM in assay [1] and 2 nM in assay [2].
`COc1cccc2c1CC=C1C=C(P(O)O)CCC12C` (centres undefined): the Ki worked out at 1900 nM in assay [1] and 1600 nM in assay [2].
As for `CN1C(=O)CCC2(C)c3ccc(Cl)cc3CCC12` (centres undefined), the values for the Ki in assay [1] and in assay [2] were 20 nM and greater than 5000 nM, respectively.
As for `CC12CCC(C(=O)O)=CC1=CCc1cc(Cl)ccc12` (centres undefined), the results for the Ki in assay [1] and in assay [2] were 1200 nM and 260 nM, respectively.
As to `CC(C)N(C(=O)[C@H]1CCC2C3CC=C4C=C(P(O)O)CC[C@]4(C)C3CC[C@@]21C)C(C)C` (some centres undefined), the Ki in assay [1] amounted to 4900 nM; in assay [2], 0.8 nM.
As for `COc1cccc2c1CC=C1C=C(C(=O)O)CCC12C` (centres undefined), the results for the Ki in assay [1] and in assay [2] were 1900 nM and 1600 nM, respectively.
As to `CC12CCC(P(O)O)=CC1=CCc1cc(Cl)ccc12` (centres undefined), the Ki in assay [1] came out at 1900 nM; in assay [2], 1600 nM.
What is called inhibition is the relative decrease from the control value, in per cent. Low readings indicate little suppression, high ones strong suppression. `COc1ccc2c(c1)CC=C1C=C(C(=O)O)CCC12C` (centres undefined): the Ki app entry in assay [3] is reported as “No inhibition”. Besides, in assay [4], the inhibition came to 30%. The Ki in assay [2] was greater than 2500 nM.
On to `CC(C)(C)NC(=O)[C@H]1CC[C@H]2[C@@H]3CC=C4C=C(C(=O)O)CC[C@]4(C)[C@H]3CC[C@]12C` [EPRISTERIDE], for which the Ki in assay [1] turned out to be 410 nM; in assay [2], 0.2 nM.
